Patent publication US20260070911A1, “INHIBITORS OF TAM RECEPTORS” (National Health Research Institutes, priority 2022, published 2026)

Tests used:
Type in all cases: biochemical
MER/AXL = experiment: Dual MER/AXL inhibition (enzymatic); details: class for both MER and AXL
Protocol: (§1) A purified kinase (AXL or MERTK) was incubated with a compound or DMSO (control) for 15 minutes in an assay buffer (25 mM Tri s pH 7.4, 10 mM MgCl2, 4 mM MnCl2, 2 mM DTT, 0.0100 BSA, 0.02% TritonX-100, 0.0100 Brij35 and 0.5 mM Na3VO4 for MERTK; and 40 mM Tri s pH 7.4, 20 mM MgCl2, 2 mM DTT, 0.01% BSA and 0.5 mM Na3VO4 for AXL). […] The mixture was incubated for 3 hours at 30° C. The luminescence was calculated to determine the kinase activity using a Kinase Glo assay kit for MERTK and an ADP-Glo Kinase Assay kit for AXL following the manufacture's instructions (Promega Corp., Madison, Wisconsin).

AXL = biological target: T1, AXL (Homo sapiens, UniProt P30530); experiment: AXL enzymatic assay (ADP-Glo); details: purified kinase, ATP 50 μM, read-out: AXL Enzymatic Inhibition (%)
T1 sequence (P30530 26-894): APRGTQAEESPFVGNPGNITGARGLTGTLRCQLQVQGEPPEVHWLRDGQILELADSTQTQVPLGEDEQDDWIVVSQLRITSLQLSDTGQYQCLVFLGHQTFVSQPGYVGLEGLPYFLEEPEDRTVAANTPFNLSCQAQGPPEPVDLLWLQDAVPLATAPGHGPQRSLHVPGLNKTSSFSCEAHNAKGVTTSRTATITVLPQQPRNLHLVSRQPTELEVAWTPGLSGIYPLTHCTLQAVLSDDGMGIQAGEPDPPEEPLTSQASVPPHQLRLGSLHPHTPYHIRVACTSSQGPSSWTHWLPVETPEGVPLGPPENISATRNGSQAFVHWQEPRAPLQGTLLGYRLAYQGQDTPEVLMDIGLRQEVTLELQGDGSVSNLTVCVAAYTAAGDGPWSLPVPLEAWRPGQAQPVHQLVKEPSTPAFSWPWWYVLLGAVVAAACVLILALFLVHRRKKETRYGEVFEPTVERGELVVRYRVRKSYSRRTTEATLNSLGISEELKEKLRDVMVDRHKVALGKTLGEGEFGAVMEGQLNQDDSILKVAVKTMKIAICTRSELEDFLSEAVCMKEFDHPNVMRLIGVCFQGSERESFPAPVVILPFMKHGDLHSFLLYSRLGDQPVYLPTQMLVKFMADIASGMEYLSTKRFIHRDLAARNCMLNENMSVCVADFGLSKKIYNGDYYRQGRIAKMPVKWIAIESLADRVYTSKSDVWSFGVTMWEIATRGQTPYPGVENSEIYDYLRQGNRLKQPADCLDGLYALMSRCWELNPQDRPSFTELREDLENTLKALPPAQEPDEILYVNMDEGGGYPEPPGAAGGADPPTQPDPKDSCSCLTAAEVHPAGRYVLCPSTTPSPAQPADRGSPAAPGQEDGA
Protocol: as §1
(§2) A study was conducted to compare exemplary compounds of formula (I) in inhibiting TAM activities, including MERTK, AXL, and TYRO3. An enzymatic assay was used in the study. A purified Kinase (i.e., MERTK, AXL, or TYRO3) was incubated with a compound or DMSO (control) for around 15 minutes in an assay buffer (25 mM Tris pH 7.4, 10 mM MgCl2, 4 mM MnCl2, 2 mM DTT, 0.01% BSA, 0.02% TritonX-100, 0.01% Brij35 and 0.5 mM Na3VO4 for MERTK; 40 mM Tris pH 7.4, 20 mM MgCl2, 2 mM DTT, 0.01% BSA and 0.5 mM Na3VO4 for AXL; and 25 mM Tris pH 7.4, 10 mM MgCl2, 4 mM MnCl2, 2 mM DTT, 0.01% BSA and 0.5 mM Na3VO4 for TYRO3). […] The mixture was incubated for 3 hours at 30° C. The luminescence was calculated to determine the kinase activity using a Kinase Glo assay kit for MERTK and an ADP-Glo Kinase assay kit for AXL and TYRO3 following the manufacture's instructions (Promega). Inhibition rates and half maximal inhibitory concentration (IC50) values were calculated. High percentage inhibition rates and low IC50 values are indicatives of high potency of the test compound.

MERTK = biological target: T2, MERTK (Homo sapiens, UniProt Q12866); experiment: MERTK enzymatic assay (Kinase Glo); details: purified kinase, ATP 12 μM, read-out: MER Enzymatic Inhibition (%)
T2 sequence (Q12866 21-999): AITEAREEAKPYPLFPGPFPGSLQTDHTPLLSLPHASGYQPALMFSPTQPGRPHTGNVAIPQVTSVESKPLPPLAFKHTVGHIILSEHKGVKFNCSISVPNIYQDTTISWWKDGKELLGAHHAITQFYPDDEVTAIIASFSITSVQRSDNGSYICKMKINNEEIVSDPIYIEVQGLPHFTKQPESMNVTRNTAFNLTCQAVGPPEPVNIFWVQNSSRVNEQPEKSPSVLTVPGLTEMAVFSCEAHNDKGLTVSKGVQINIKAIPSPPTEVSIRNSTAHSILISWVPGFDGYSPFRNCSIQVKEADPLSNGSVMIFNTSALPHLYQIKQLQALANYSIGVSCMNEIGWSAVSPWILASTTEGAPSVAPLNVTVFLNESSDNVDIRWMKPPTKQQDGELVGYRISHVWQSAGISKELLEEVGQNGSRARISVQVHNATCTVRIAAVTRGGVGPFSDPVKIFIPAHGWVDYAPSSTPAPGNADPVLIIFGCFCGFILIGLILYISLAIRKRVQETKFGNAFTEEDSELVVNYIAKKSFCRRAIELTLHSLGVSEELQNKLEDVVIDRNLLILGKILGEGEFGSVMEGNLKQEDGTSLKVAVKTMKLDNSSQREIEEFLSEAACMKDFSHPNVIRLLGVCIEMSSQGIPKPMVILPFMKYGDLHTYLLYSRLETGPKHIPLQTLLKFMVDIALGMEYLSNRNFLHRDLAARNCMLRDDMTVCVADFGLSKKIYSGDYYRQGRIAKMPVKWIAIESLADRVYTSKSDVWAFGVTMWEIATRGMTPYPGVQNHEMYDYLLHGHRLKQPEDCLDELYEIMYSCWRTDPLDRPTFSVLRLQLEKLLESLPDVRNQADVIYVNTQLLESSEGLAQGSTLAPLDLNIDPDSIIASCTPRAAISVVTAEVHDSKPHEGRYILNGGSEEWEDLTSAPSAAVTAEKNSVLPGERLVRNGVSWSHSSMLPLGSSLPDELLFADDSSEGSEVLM
Protocol: as §1, §2

Row | SMILES | IC50 (MER/AXL) | IC50 (AXL) | IC50 (MERTK)
1 | Cn1cc(-c2oc3ncnc(Oc4ccc(NC(=O)c5cn(C)n(-c6ccc(F)cc6)c5=O)cc4)c3c2-c2cccc(N3CCCCC3=O)c2)cn1 [Compound 176] | 100 to 50000 nM | 100 to 50000 nM | 100 to 50000 nM
2 | O=C(Nc1ccc(Nc2ncnc3[nH]cc(C#Cc4ccccc4)c23)cc1)c1cccn(-c2ccc(F)cc2)c1=O [Compound 13] | 100 to 50000 nM | 100 to 50000 nM | 100 to 50000 nM
3 | CN(c1cccc(-c2c(-c3cnn(C)c3)oc3ncnc(Oc4ccc(NC(=O)c5cccn(-c6ccc(F)cc6)c5=O)cc4)c23)c1)S(C)(=O)=O [Compound 65] | 100 to 50000 nM | 20 to 100 nM | 100 to 50000 nM
4 | C=CC(=O)Nc1cccc(-c2c(-c3cnn(C)c3)oc3ncnc(Oc4ccc(NC(=O)c5cccn(-c6ccc(F)cc6)c5=O)cc4)c23)c1 [Compound 12] | 100 to 50000 nM | 100 to 50000 nM | 100 to 50000 nM
5 | O=C(Nc1ccc(Oc2ncnc3[nH]cc(-c4cccnc4)c23)cc1)c1cccn(-c2ccc(F)cc2)c1=O [Compound 16] | 100 to 50000 nM | < 20 nM | 100 to 50000 nM
6 | Cn1cc(-c2oc3ncnc(Oc4ccc(NC(=O)c5cccn(-c6ccc(F)cc6)c5=O)cc4)c3c2-c2cccc(N3CCNCC3)c2)cn1 [Compound 33] | < 20 nM | < 20 nM | < 20 nM
7 | Cn1cc(-c2oc3ncnc(Oc4ccc(NC(=O)c5cccn(-c6ccccc6)c5=O)cc4)c3c2-c2cccc(N)c2)cn1 [Compound 54] | 20 to 100 nM | < 20 nM | 20 to 100 nM
8 | CN(C(=O)c1cccn(-c2ccc(F)cc2)c1=O)c1ccc(Oc2ncnc3oc(-c4cnn(C)c4)c(-c4cccc(N(C)S(C)(=O)=O)c4)c23)cc1 [Compound 64] | 100 to 50000 nM | 100 to 50000 nM | 100 to 50000 nM
9 | Cn1cc(-c2oc3ncnc(Oc4ccc(NC(=O)c5cc6c(n(-c7ccccc7)c5=O)CCCC6=O)cc4)c3c2-c2cccc(N)c2)cn1 [Compound 61] | 20 to 100 nM | < 20 nM | 20 to 100 nM
10 | CC(=O)Nc1cccc(-c2c(-c3cnn(C)c3)oc3ncnc(Oc4ccc(NC(=O)c5cc6c(n(-c7ccc(F)cc7)c5=O)CCCC6=O)cc4)c23)c1 [Compound 69] | 100 to 50000 nM | < 20 nM | 100 to 50000 nM
11 | Cn1cc(-c2oc3ncnc(Oc4ccc(NC(=O)c5cn(C)n(-c6ccc(F)cc6)c5=O)cc4)c3c2-c2cccc(CN3CCNCC3)c2)cn1 [Compound 130] | 100 to 50000 nM | 100 to 50000 nM | 100 to 50000 nM
12 | CC(=O)Nc1cccc(-c2c(-c3cn[nH]c3)oc3ncnc(Oc4ccc(NC(=O)c5cccn(-c6ccc(F)cc6)c5=O)cc4)c23)c1 [Compound 40] | 20 to 100 nM | < 20 nM | 20 to 100 nM
13 | O=C(Nc1ccc(Oc2ncnc3[nH]cc(-c4ccccc4)c23)cc1)c1cccn(-c2ccc(F)cc2)c1=O [Compound 8] | 100 to 50000 nM | 100 to 50000 nM | 20 to 100 nM
14 | CN(C)c1cccc(-c2c[nH]c3ncnc(Oc4ccc(NC(=O)c5cccn(-c6ccc(F)cc6)c5=O)cc4)c23)c1 [Compound 21] | 100 to 50000 nM | 100 to 50000 nM | 100 to 50000 nM
15 | Cn1cc(-c2oc3ncnc(Oc4ccc(NC(=O)c5cccn(-c6ccc(F)cc6)c5=O)cc4)c3c2-c2cccnc2)cn1 [Compound 31] | 100 to 50000 nM | < 20 nM | 100 to 50000 nM
16 | CCOc1ccn(-c2ccc(F)cc2)c(=O)c1C(=O)Nc1ccc(Oc2ncnc3[nH]ccc23)cc1 [Compound 6] | 100 to 50000 nM | 100 to 50000 nM | 100 to 50000 nM
17 | Cn1cc(-c2oc3ncnc(Oc4ccc(NC(=O)c5cn(C)n(-c6ccc(F)cc6)c5=O)cc4)c3c2-c2ccccc2N)cn1 [Compound 141] | 100 to 50000 nM | 100 to 50000 nM | 100 to 50000 nM
18 | CN(C)Cc1cccc(-c2c(-c3cnn(C)c3)oc3ncnc(Oc4ccc(NC(=O)c5cccn(-c6ccc(F)c(Cl)c6)c5=O)cc4)c23)c1 [Compound 97] |  | < 20 nM | 20 to 100 nM
